Measured values taken from patent US4291164A, “Cephalosporin analogs and methods for production thereof” (Kyowa Hakko Kogyo Co., Ltd., priority 1978, dated 1981).
≈ marks a conversion by molar mass, not a printed value. Where a name gives a salt, the structure may show the parent alone. Read-outs that look alike come from different tables or passages of the source.

What was measured:
Format in all cases: cell-based
Escherichia coli Juhl = test: Antibacterial activity, Heart Infusion Agar Dilution Method, Escherichia coli Juhl
[1] = tested on: Staphylococcus aureus 209p; test: Antibacterial activity, Heart Infusion Agar Dilution Method, Staphylococcus aureus 209p; conditions: for MIC: pH 7.2, read-out: Minimum Inhibitory Concentration
Method: (§1) The antibacterial activity of the compounds obtained in the above Examples 24, 26, 28, 30, 32, 34, 36, 38, 40 and 41 are determined by Heart Infusion Agar Dilution Method (pH 7.2). Cefazolin is used as a reference.

[2] = tested on: Klebsiella pneumoniae 8045; test: Antibacterial activity, Heart Infusion Agar Dilution Method, Klebsiella pneumoniae 8045; conditions: for MIC: pH 7.2, read-out: Minimum Inhibitory Concentration; for Minimum Inhibitory Concentration: pH 7.2
Method: as §1

[3] = tested on: Staphylococcus epidermidis; test: Antibacterial activity, Heart Infusion Agar Dilution Method, Staphylococcus epidermidis; conditions: for MIC: pH 7.2, read-out: Minimum Inhibitory Concentration
Method: as §1

[4] = tested on: Klebsiella pneumoniae Y60; test: Antibacterial activity, Heart Infusion Agar Dilution Method, Klebsiella pneumoniae Y60; conditions: for MIC: pH 7.2, read-out: Minimum Inhibitory Concentration
Escherichia coli NIHJC2 = test: Antibacterial activity, Heart Infusion Agar Dilution Method, Escherichia coli NIHJC2
Method: as §1

Serratia marcescens T26 = test: Antibacterial activity, Heart Infusion Agar Dilution Method, Serratia marcescens T26; conditions: for MIC: pH 7.2, read-out: Minimum Inhibitory Concentration
Proteus vulgaris 6897 = test: Antibacterial activity, Heart Infusion Agar Dilution Method, Proteus vulgaris 6897; conditions: for MIC: pH 7.2, read-out: Minimum Inhibitory Concentration; for Minimum Inhibitory Concentration: pH 7.2
Method: as §1

Proteus mirabilis 1287 = test: Antibacterial activity, Heart Infusion Agar Dilution Method, Proteus mirabilis 1287; conditions: for MIC: pH 7.2, read-out: Minimum Inhibitory Concentration; for Minimum Inhibitory Concentration: pH 7.2
Method: as §1

Pseudomonas putida F264 = test: Antibacterial activity, Heart Infusion Agar Dilution Method, Pseudomonas putida F264; conditions: for MIC: pH 7.2, read-out: Minimum Inhibitory Concentration
Proteus rettgeri KY4289 = test: Antibacterial activity, Heart Infusion Agar Dilution Method, Proteus rettgeri KY4289; conditions: for MIC: Providencia rettgeri, pH 7.2, read-out: Minimum Inhibitory Concentration; for Minimum Inhibitory Concentration: pH 7.2
Method: as §1

Serratia marcescens T55 = test: Antibacterial activity, Heart Infusion Agar Dilution Method, Serratia marcescens T55; conditions: for MIC: pH 7.2, read-out: Minimum Inhibitory Concentration; for Minimum Inhibitory Concentration: pH 7.2
[5] = tested on: Staphylococcus aureus Smith; test: Antibacterial activity, Heart Infusion Agar Dilution Method, Staphylococcus aureus Smith; conditions: for MIC: pH 7.2, read-out: Minimum Inhibitory Concentration
Method: as §1

Proteus morganii KY4298 = test: Antibacterial activity, Heart Infusion Agar Dilution Method, Proteus morganii KY4298; conditions: for MIC: Morganella morganii, pH 7.2, read-out: Minimum Inhibitory Concentration; for Minimum Inhibitory Concentration: pH 7.2
Method: as §1

[6] = tested on: Pseudomonas aeruginosa 145; test: Antibacterial activity, Heart Infusion Agar Dilution Method, Pseudomonas aeruginosa 145; conditions: for MIC: Pseudomonas aeruginosa, 145, pH 7.2, read-out: Minimum Inhibitory Concentration
Method: as §1

[7] = Escherichia coli Juhl, Heart Infusion Agar Dilution, pH 7.2, read-out: Minimum Inhibitory Concentration
[8] = Escherichia coli NIHJC2, Heart Infusion Agar Dilution, pH 7.2, read-out: Minimum Inhibitory Concentration
[9] = Escherichia coli NIHJC2, Heart Infusion Agar Dilution, pH 7.2

Compound	MIC (Escherichia coli Juhl; [7]) [µg/mL]	MIC [1] [µg/mL]	MIC [2] [µg/mL]	MIC [3] [µg/mL]	MIC [4] [µg/mL]	MIC (Escherichia coli NIHJC2; [8]) [µg/mL]	MIC (Serratia marcescens T26) [µg/mL]	MIC (Proteus vulgaris 6897) [µg/mL]	MIC (Proteus mirabilis 1287) [µg/mL]	MIC (Pseudomonas putida F264) [µg/mL]	MIC (Proteus rettgeri KY4289) [µg/mL]	MIC (Serratia marcescens T55) [µg/mL]	MIC [5] [µg/mL]	MIC (Proteus morganii KY4298) [µg/mL]	MIC [6] [µg/mL]	further results
CO/N=C(/C(=O)N[C@@H]1C(=O)N2C(C(=O)O)=CCC[C@H]12)c1csc(N)n1 (relative stereo) [Example 24, (±)-cis-7-[2-(2-amino-4-thiazolyl)-2-anti-methoxyimino-acetamido]-1-azabicyclo[4,2,0]oct-2-en-8-one-2-carboxylic acid]	1.56 (≈ 4.27 µM)	100 (≈ 274 µM)	0.2 (≈ 0.547 µM)	100 (≈ 274 µM)	1.56 (≈ 4.27 µM)	0.78 (≈ 2.13 µM)	3.12 (≈ 8.54 µM)	0.4 (≈ 1.09 µM)	0.78 (≈ 2.13 µM)	0.78 (≈ 2.13 µM)	0.1 (≈ 0.274 µM)	1.56 (≈ 4.27 µM)	> 100	0.78 (≈ 2.13 µM)	> 100	
N[C@@H](C(=O)NC1C(=O)N2C(C(=O)O)=CCCC12)c1ccccc1 (single isomer, unassigned) [Example 26 A isomer]																Minimum Inhibitory Concentration (Escherichia coli Juhl; Escherichia coli Juhl, Heart Infusion Agar Dilution, pH 7.2): 100 µg/mL; Minimum Inhibitory Concentration [2]: 50 µg/mL; Minimum Inhibitory Concentration ([4]; pH 7.2): 50 µg/mL; Minimum Inhibitory Concentration (Escherichia coli NIHJC2; [9]): 50 µg/mL; Minimum Inhibitory Concentration (Proteus vulgaris 6897): 25 µg/mL; Minimum Inhibitory Concentration (Proteus mirabilis 1287): 25 µg/mL; Minimum Inhibitory Concentration (Proteus rettgeri KY4289): 6.25 µg/mL; Minimum Inhibitory Concentration (Serratia marcescens T55): 100 µg/mL; Minimum Inhibitory Concentration (Proteus morganii KY4298): 50 µg/mL
C[C@@H]1C=C(C(=O)O)N2C(=O)[C@@H](NC(=O)[C@H](N)c3ccccc3)[C@H]2C1 (relative stereo) [Example 32, (±)-cis-7β-[(R)-2-phenyl-2-aminoacetamido]-4α-methyl-2-carboxy-1-azabicyclo[4,2,0]oct-2-en-8-one]	12.5 (≈ 38 µM)	0.78 (≈ 2.37 µM)	3.12 (≈ 9.47 µM)	6.25 (≈ 19 µM)	> 100	12.5 (≈ 38 µM)	> 100	50 (≈ 152 µM)	50 (≈ 152 µM)	100 (≈ 304 µM)	> 100	25 (≈ 75.9 µM)	6.25 (≈ 19 µM)	100 (≈ 304 µM)	> 100	
CO/N=C(\C(=O)N[C@@H]1C(=O)N2C(C(=O)O)=C[C@@H](C)C[C@H]12)c1csc(N)n1 (relative stereo) [Example 38, (±)-cis-7β-[2-(2-amino-4-thiazolyl)-2-syn-methoxyiminoacetamido]-4α-methyl-1-azabicyclo[4,2,0]oct-2-en-8-one-2-carboxylic acid]	≤ 0.05	12.5 (≈ 32.9 µM)	≤ 0.05	12.5 (≈ 32.9 µM)	≤ 0.05	≤ 0.05		≤ 0.05	≤ 0.05	≤ 0.05	≤ 0.05	0.1 (≈ 0.264 µM)	12.5 (≈ 32.9 µM)	≤ 0.05	> 100	
CO/N=C(/C(=O)N[C@@H]1C(=O)N2C(C(=O)O)=C[C@@H](C)C[C@H]12)c1csc(N)n1 (relative stereo) [Example 34, (±)-cis-7β[2-(2-amino-4-thiazolyl)-2-anti-methoxyiminoacetamido]-4α-methyl-2-carboxy-1-azabicyclo[4,2,0]oct-2-en-8-one]	0.78 (≈ 2.06 µM)	12.5 (≈ 32.9 µM)	0.1 (≈ 0.264 µM)	25 (≈ 65.9 µM)		0.4 (≈ 1.05 µM)	25 (≈ 65.9 µM)	< 0.05	0.2 (≈ 0.527 µM)		0.1 (≈ 0.264 µM)		25 (≈ 65.9 µM)	0.78 (≈ 2.06 µM)	> 100	
C[C@H]1C=C(C(=O)O)N2C(=O)[C@@H](NC(=O)[C@H](N)c3ccccc3)[C@H]2C1 (relative stereo) [Example 30, trifluoroacetate of (±)-cis-7β-[(R)-2-phenyl-2-aminoacetamido]-4β-methyl-2-carboxy-1-azabicyclo[4,2,0]oct-2-en-8-one]	25	0.4	6.25	3.12	100	50	> 100	> 100	> 100	> 100	> 100	> 100	1.56	> 100	> 100	
Cc1nnc(SCC2=C(C(=O)O)N3C(=O)[C@@H](NC(=O)Cn4cnnn4)[C@H]3SC2)s1 [Cefazolin, reference compound]		< 0.05	0.78 (≈ 1.72 µM)	0.78 (≈ 1.72 µM)	3.12 (≈ 6.86 µM)		> 100	12.5 (≈ 27.5 µM)	12.5 (≈ 27.5 µM)	> 100	25 (≈ 55 µM)	50 (≈ 110 µM)	0.4 (≈ 0.88 µM)	> 100	> 100	MIC (Escherichia coli Juhl; Escherichia coli, pH 7.2, read-out: Minimum Inhibitory Concentration): 1.56 µg/mL (≈ 3.43 µM); MIC (Escherichia coli NIHJC2; Escherichia coli, NIHJC2, pH 7.2, read-out: Minimum Inhibitory Concentration): 1.56 µg/mL (≈ 3.43 µM)
CC(=O)O[C@@H]1C=C(C(=O)O)N2C(=O)[C@@H](NC(=O)Cc3cccs3)[C@H]2C1 (relative stereo) [Example 41, (±)-cis-7β-(2-thienylacetamido)4α-acetoxy-1-azabicyclo[4,2,0]oct-2-en-8-on-2-carboxylic acid]	100 (≈ 274 µM)	3.12 (≈ 8.56 µM)	> 100	12.5 (≈ 34.3 µM)	25 (≈ 68.6 µM)	100 (≈ 274 µM)	> 100	> 100	> 100	> 100	> 100	> 100	25 (≈ 68.6 µM)	> 100	> 100	
N[C@@H](C(=O)N[C@H]1C(=O)N2C(C(=O)O)=CCC[C@H]12)c1ccccc1 (racemic) [Example 26, (±)-cis-7-[(R)-2-phenyl-2-aminoacetamido]-1-azabicyclo-[4,2,0]oct-2-en-8-on-2-carboxylic acid]	12.5 (≈ 39.6 µM)	0.4 (≈ 1.27 µM)	3.12 (≈ 9.89 µM)	6.25 (≈ 19.8 µM)	12.5 (≈ 39.6 µM)	12.5 (≈ 39.6 µM)	> 100	25 (≈ 79.3 µM)	25 (≈ 79.3 µM)	> 100	50 (≈ 159 µM)	25 (≈ 79.3 µM)	12.5 (≈ 39.6 µM)	100 (≈ 317 µM)	> 100	
CO/N=C(\C(=O)N[C@@H]1C(=O)N2C(C(=O)O)=CCC[C@H]12)c1csc(N)n1 (relative stereo) [Example 40, (±)-cis-7-[2-(2-amino-4-thiazolyl)-2-syn-methoxyiminoacetamido]-1-azabicyclo[4,2,0]oct-2-en-8-on-2-carboxylic acid]	≤ 0.05	12.5 (≈ 34.2 µM)	≤ 0.05	12.5 (≈ 34.2 µM)	≤ 0.05	≤ 0.05	0.78 (≈ 2.13 µM)	≤ 0.05	≤ 0.05	0.1 (≈ 0.274 µM)	≤ 0.05	≤ 0.05	12.5 (≈ 34.2 µM)	≤ 0.05	50 (≈ 137 µM)	
CON=C(C(=O)NC1C(=O)N2C(C(=O)O)=CC(C)CC12)c1csc(N)n1 (racemic) [Example 36, (±)-cis-7β-[2-(2-amino-4-thiazolyl)-2-methoxyiminoacetamido]-4β-methyl-2-carboxy-1-azabicyclo[4,2,0]oct-2-en-8-one]																Minimum Inhibitory Concentration ([1]; pH 7.2): 50 µg/mL; Minimum Inhibitory Concentration [2]: 0.2 µg/mL; Minimum Inhibitory Concentration ([3]; pH 7.2): > 100 µg/mL; Minimum Inhibitory Concentration (Escherichia coli NIHJC2; [9]): 0.2 µg/mL; Minimum Inhibitory Concentration (Serratia marcescens T26; pH 7.2): 6.25 µg/mL; Minimum Inhibitory Concentration (Proteus vulgaris 6897): 0.78 µg/mL; Minimum Inhibitory Concentration (Proteus mirabilis 1287): 0.78 µg/mL; Minimum Inhibitory Concentration (Pseudomonas putida F264; pH 7.2): 0.4 µg/mL; Minimum Inhibitory Concentration (Proteus rettgeri KY4289): 0.4 µg/mL; Minimum Inhibitory Concentration (Serratia marcescens T55): 3.12 µg/mL; Minimum Inhibitory Concentration ([5]; pH 7.2): 100 µg/mL; Minimum Inhibitory Concentration (Proteus morganii KY4298): 0.78 µg/mL; Minimum Inhibitory Concentration ([6]; Pseudomonas aeruginosa 145, Heart Infusion Agar Dilution, pH 7.2): > 100 µg/mL
